Consider 24 molecules from patent US8329755B2, “Methods for treating retroviral infections” (Roche Palo Alto LLC, priority 2004, dated 2012).

One may read the melting point as the temperature, or range, at which the solid turns liquid.

The structures appear in SMILES notation.

Turning to `Cc1cc(S(N)(=O)=O)ccc1NC(=O)Cc1ccc(Cl)c(Oc2c(C)cc(C#N)cc2C)c1` [Compound I-56, 2-[4-Chloro-3-(4-cyano-2,6-dimethyl-phenoxy)-phenyl]-N-(2-methyl-4-sulfamoyl-phenyl)-acetamide], the melting point was 232.1 to 234.6 °C.

Molecule `Cc1cc(S(=O)(=O)NC2CCC(O)CC2)ccc1NC(=O)Cc1ccc(C)c(Oc2cc(Cl)cc(C#N)c2)c1` (stereo not drawn) [Compound I-121, 2-[3-(3-Chloro-5-cyano-phenoxy)-4-methyl-phenyl]-N-[4-(4-hydroxy-cyclohexylsulfamoyl)-2-methyl-phenyl]-acetamide] yielded a melting point of 195.1 to 197.7 °C.

As to `Cc1cc(N(C)S(C)(=O)=O)ccc1NC(=O)Cc1ccc(C)c(Oc2cc(Cl)cc(C#N)c2)c1` [Compound I-238, 2-[3-(3-Chloro-5-cyano-phenoxy)-4-methyl-phenyl]-N-[4-(methanesulfonyl-methyl-amino)-2-methyl-phenyl]-acetamide], the melting point lay in the range of 184 to 184.8 °C.

`Cc1cc(S(N)(=O)=O)ccc1NC(=O)Cc1ccc(Cl)c(Oc2cc(Br)cc(C#N)c2)c1F` [Compound I-185, 2-[3-(3-Bromo-5-cyano-phenoxy)-4-chloro-2-fluoro-phenyl]-N-(2-methyl-4-sulfamoyl-phenyl)-acetamide] returned a melting point of 246 to 250.6 °C.

`CCc1ccc(CC(=O)Nc2ccc(S(N)(=O)=O)cc2Cl)cc1Oc1cc(C#N)cc(C#N)c1Cl` [Compound I-54, 2-[3-(2-Chloro-3,5-dicyano-phenoxy)-4-ethyl-phenyl]-N-(2-chloro-4-sulfamoyl-phenyl)-acetamide]: the melting point lay in the range of 180.3 to 183.1 °C.

`CCc1ccc(CC(=O)Nc2ccccc2Cl)cc1Oc1cc(Cl)ccc1C#N` [Compound I-18, 2-[3-(5-Chloro-2-cyano-phenoxy)-4-ethyl-phenyl]-N-(2-chloro-phenyl)-acetamide] returned a melting point of 168 to 169.9 °C.

`Cc1cc(CC(=O)Nc2ccc(S(N)(=O)=O)cc2Cl)cc(Oc2cc(C#N)ccc2Cl)c1` [Compound I-148, 2-[3-(2-Chloro-5-cyano-phenoxy)-5-methyl-phenyl]-N-(2-chloro-4-sulfamoyl-phenyl)-acetamide] yielded a melting point of 212.9 to 214.4 °C.

The molecule `Cc1ccc(CC(=O)Nc2ccc(S(N)(=O)=O)cc2)cc1Oc1cc(F)cc(C#N)c1` [Compound I-11, 2-[3-(3-Cyano-5-fluoro-phenoxy)-4-methyl-phenyl]-N-(4-sulfamoyl-phenyl)-acetamide] showed a melting point of 165.8 to 168.1 °C.

`Cc1cc(N2CCS(=O)(=O)CC2)ccc1NC(=O)Cc1ccc(C)c(Oc2cc(Cl)cc(C#N)c2)c1` [Compound I-161, 2-[3-(3-Chloro-5-cyano-phenoxy)-4-methyl-phenyl]-N-[4-(1,1-dioxo-1λ^6-thiomorpholin-4-yl)-2-methyl-phenyl]-acetamide] had a melting point of 64.8 to 65.4 °C.

Molecule `Cc1cc(CC(=O)Nc2ccccc2Cl)cc(C(=O)c2cccc(Cl)c2)c1` [Compound I-262, 2-[3-(3-Chloro-benzoyl)-5-methyl-phenyl]-N-(2-chloro-phenyl)-acetamide] gave a melting point of 113 to 113.8 °C.

In the case of `O=C(Cc1ccc(Cl)c(Sc2cc(Cl)ccc2Br)c1)Nc1ccccc1Cl` [Compound I-244, 2-[3-(2-Bromo-5-chloro-phenylsulfanyl)-4-chloro-phenyl]-N-(2-chloro-phenyl)-acetamide], the melting point fell in the range of 172.2 to 172.8 °C.

Molecule `Cc1cc(CC(=O)Nc2ccc(S(N)(=O)=O)cc2)cc(C(=O)c2cccc(Cl)c2)c1` [Compound I-261, 2-[3-(3-Chloro-benzoyl)-5-methyl-phenyl]-N-(4-sulfamoyl-phenyl)-acetamide] had a melting point of 211 to 213.1 °C.

For the molecule `Cc1cc(S(N)(=O)=O)ccc1NC(=O)Cc1ccc(C)c(Oc2cc(Cl)cc(C#N)c2)c1` [Compound I-122, 2-[3-(3-Chloro-5-cyano-phenoxy)-4-methyl-phenyl]-N-(2-methyl-4-sulfamoyl-phenyl)-acetamide], the melting point was in the range of 192.8 to 194.1 °C.

In turn, `CSCCCNS(=O)(=O)c1ccc(NC(=O)Cc2ccc(C)c(Oc3cc(Cl)cc(C#N)c3)c2)c(C)c1` [Compound I-131, 2-[3-(3-Chloro-5-cyano-phenoxy)-4-methyl-phenyl]-N-[2-methyl-4-(3-methylsulfanyl-propylsulfamoyl)-phenyl]-acetamide] showed a melting point of 159.9 to 162.8 °C.

`Cc1cc(CC(=O)Nc2ccccc2Cl)cc(C(=O)c2ccc(Cl)cc2)c1` [Compound I-258, 2-[3-(4-Chloro-benzoyl)-5-methyl-phenyl]-N-(2-chloro-phenyl)-acetamide] registered a melting point of 134.7 to 135.5 °C.

In the case of `Cc1cc(N2CCCCS2(=O)=O)ccc1NC(=O)Cc1ccc(C)c(Oc2cc(Cl)cc(C#N)c2)c1` [Compound I-158, 2-[3-(3-Chloro-5-cyano-phenoxy)-4-methyl-phenyl]-N-[4-(1,1-dioxo-1λ^6-[1,2]thiazinan-2-yl)-2-methyl-phenyl]-acetamide], the melting point lay within 84.3 to 85.6 °C.

The molecule `CCc1ccc(CC(=O)Nc2ccccc2Cl)cc1Oc1cc(Cl)cc(Br)c1Cl` [Compound I-37, 2-[3-(3-Bromo-2,5-dichloro-phenoxy)-4-ethyl-phenyl]-N-(2-chloro-phenyl)-acetamide] registered a melting point of 146.5 to 147.6 °C.

With `N#Cc1cc(C#N)cc(Oc2c(Cl)ccc(CC(=O)Nc3ccccc3Cl)c2F)c1` [Compound I-28, 2-[4-Chloro-3-(3,5-dicyano-phenoxy)-2-fluoro-phenyl]-N-(2-chloro-phenyl)-acetamide], the melting point was 182.6 to 196.5 °C.

`CCc1ccc(CC(=O)Nc2ccc(S(N)(=O)=O)cc2)cc1Oc1cc(C#N)cc(F)c1Cl` [Compound I-49, 2-[3-(2-Chloro-5-cyano-3-fluoro-phenoxy)-4-ethyl-phenyl]-N-(4-sulfamoyl-phenyl)-acetamide] displayed a melting point of 167.9 to 170.5 °C.

For `Cc1cc(S(N)(=O)=O)ccc1NC(=O)Cc1ccc(Cl)c(Oc2cc(C#N)cc(C(F)(F)F)c2)c1` [Compound I-89, 2-[4-Chloro-3-(3-cyano-5-trifluoromethyl-phenoxy)-phenyl]-N-(2-methyl-4-sulfamoyl-phenyl)-acetamide], the melting point is 211.6 to 214.6 °C.

In turn, `COc1ccc(CC(=O)Nc2ccccc2Cl)cc1Oc1cc(Cl)cc(C#N)c1` [Compound I-61, 2-[3-(3-Chloro-5-cyano-phenoxy)-4-methoxy-phenyl]-N-(2-chloro-phenyl)-acetamide] displayed a melting point of 175.7 to 178.3 °C.

Consider `Cc1cc(C#N)cc(C)c1Oc1cc(CC(=O)Nc2ccc(S(N)(=O)=O)cc2)ccc1Cl` [Compound I-55, 2-[4-Chloro-3-(4-cyano-2,6-dimethyl-phenoxy)-phenyl]-N-(4-sulfamoyl-phenyl)-acetamide], for which the melting point is 227.3 to 231.4 °C.

`CCc1ccc(CC(=O)Nc2ccc(S(N)(=O)=O)cc2C)cc1Oc1cc(C#N)cc(F)c1Cl` [Compound I-50, 2-[3-(2-Chloro-5-cyano-3-fluoro-phenoxy)-4-ethyl-phenyl]-N-(2-methyl-4-sulfamoyl-phenyl)-acetamide]: the melting point lay in the range of 217.6 to 220.4 °C.

The molecule `NS(=O)(=O)c1ccc(NC(=O)Cc2cc3c(c(C(=O)c4ccc(Cl)cc4)c2)OCC3)cc1` [Compound I-241, 2-[7-(4-Chloro-benzoyl)-2,3-dihydro-benzofuran-5-yl]-N-(4-sulfamoyl-phenyl)-acetamide] had a melting point of 259 to 261 °C.
